# Patent US9688653B2, “Ethoxyphenyl thienyl compounds and methods for the treatment of bacterial infections” (Duke University, priority 2013, dated 2017)
# Read-outs that look alike come from different tables or passages of the source.
# Columns and labels:
# panel of 68 receptors [1] = molecular target: panel of 68 receptors (Mus musculus, UniProt P13504); conditions: Interleukin IL-1, mouse, 10 μM
# panel of 68 receptors [2] = molecular target: panel of 68 receptors (Homo sapiens, UniProt P25100); conditions: Adrenergic α1D, hum, 10 μM
# panel of 68 receptors [3] = molecular target: panel of 68 receptors (Homo sapiens, UniProt P25929); conditions: Neuropeptide Y Y1, hum, 10 μM
# panel of 68 receptors [4] = molecular target: panel of 68 receptors (Homo sapiens, UniProt P08172); conditions: Muscarinic M2, hum, 10 μM
# panel of 68 receptors [5] = molecular target: panel of 68 receptors (Homo sapiens, UniProt P41143); conditions: Opiate δ1, (OP1, DOP), hum, 10 μM
# panel of 68 receptors [6] = molecular target: panel of 68 receptors (Homo sapiens, UniProt P30542); conditions: Adenosine A1, hum, 10 μM
# panel of 68 receptors [7] = molecular target: panel of 68 receptors (Homo sapiens, UniProt P03372); conditions: Estrogen ERα, hum, 10 μM
# panel of 68 receptors [8] = molecular target: panel of 68 receptors (Homo sapiens, UniProt P08908); conditions: Serotonin (5-Hydroxytryptamine) 5-HT1A, hum, 10 μM
# panel of 68 receptors [9] = molecular target: panel of 68 receptors (Homo sapiens, UniProt P25103); conditions: Tachykinin NK1, hum, 10 μM
# panel of 68 receptors [10] = molecular target: panel of 68 receptors (Homo sapiens, UniProt P41595); conditions: Serotonin (5-Hydroxytryptamine) 5-HT2B, hum, 10 μM
# panel of 68 receptors [11] = molecular target: panel of 68 receptors (Homo sapiens, UniProt Q99720); conditions: Sigma σ1, hum, 10 μM
# panel of 68 receptors [12] = molecular target: panel of 68 receptors (Homo sapiens, UniProt P31645); conditions: Transporter, Serotonin (5-Hydroxytryptamine) (SERT), hum, 10 μM
# K1 antigen of UTI89 = assay: K1 antigen whole-cell dot blot with anti-K1 serum; assay type: cell-based, Escherichia coli; conditions: 100 μM
# Description: K1 antigen dot blot. K1 antigen was detected by dot blot assays of culture extracts probed with anti-K1 H46 serum. The assay was performed as previously described. The experiment was repeated twice with similar results, and a representative dot blot is shown.
# Plasma stability, human = assay type: in vitro ADME; conditions: 1:1 Plasma:PBS, 37° C.
# E. coli K1 strain UTI89 = assay: microbe, parasite or virus in culture; conditions: for Selectivity index (CC50/IC50): versus bladder 5637 cells
# Procedure, shortened: (§1)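 UTI89 cultures in LB with 0.5% DMSO were preincubated 2 hr at 37 °C with compounds (100 μM in screen), then with K1F phage a further 2 hr. Viability was read as Alamar Blue fluorescence. Phage-lysis inhibition is relative to plate bacterial controls; IC50 by 4-parameter fit locked at 0 and 100.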
# in vitro = conditions: human (5637 cells, CC50), Escherichia coli (UTI89, IC50), Fold Selective (CC50/IC50)
# Procedure, shortened: as §1
# capsule genes of UPEC = assay: Capsule gene transcript level after probe treatment; assay type: cell-based, Escherichia coli; conditions: UPEC treated with the probe
# Sequence of panel of 68 receptors (Homo sapiens, UniProt P08172) (P08172 whole entry): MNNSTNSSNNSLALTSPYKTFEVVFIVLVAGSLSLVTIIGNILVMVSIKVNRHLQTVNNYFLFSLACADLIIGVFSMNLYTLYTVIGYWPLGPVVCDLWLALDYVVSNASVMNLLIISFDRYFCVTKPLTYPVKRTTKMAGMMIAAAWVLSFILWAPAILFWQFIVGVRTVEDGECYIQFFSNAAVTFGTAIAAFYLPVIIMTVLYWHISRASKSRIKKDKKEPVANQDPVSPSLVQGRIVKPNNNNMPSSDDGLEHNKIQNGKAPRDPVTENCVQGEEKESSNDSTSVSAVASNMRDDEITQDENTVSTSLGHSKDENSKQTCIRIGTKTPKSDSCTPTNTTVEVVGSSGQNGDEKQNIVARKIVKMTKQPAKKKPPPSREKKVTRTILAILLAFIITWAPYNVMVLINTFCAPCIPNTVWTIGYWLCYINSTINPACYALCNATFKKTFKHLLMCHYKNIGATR
# Sequence of panel of 68 receptors (Homo sapiens, UniProt P25103) (P25103 whole entry): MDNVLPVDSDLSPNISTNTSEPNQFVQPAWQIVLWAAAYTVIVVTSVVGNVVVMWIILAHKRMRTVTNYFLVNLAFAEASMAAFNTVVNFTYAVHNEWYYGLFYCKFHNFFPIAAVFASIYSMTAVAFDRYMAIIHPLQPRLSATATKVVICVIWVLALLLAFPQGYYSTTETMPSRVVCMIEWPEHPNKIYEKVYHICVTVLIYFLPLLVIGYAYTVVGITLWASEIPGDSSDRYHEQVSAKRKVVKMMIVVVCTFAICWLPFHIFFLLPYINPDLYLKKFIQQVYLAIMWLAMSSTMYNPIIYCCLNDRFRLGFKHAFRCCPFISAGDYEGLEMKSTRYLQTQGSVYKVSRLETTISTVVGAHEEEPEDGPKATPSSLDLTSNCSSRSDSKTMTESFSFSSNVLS
# Sequence of panel of 68 receptors (Mus musculus, UniProt P13504) (P13504 20-576): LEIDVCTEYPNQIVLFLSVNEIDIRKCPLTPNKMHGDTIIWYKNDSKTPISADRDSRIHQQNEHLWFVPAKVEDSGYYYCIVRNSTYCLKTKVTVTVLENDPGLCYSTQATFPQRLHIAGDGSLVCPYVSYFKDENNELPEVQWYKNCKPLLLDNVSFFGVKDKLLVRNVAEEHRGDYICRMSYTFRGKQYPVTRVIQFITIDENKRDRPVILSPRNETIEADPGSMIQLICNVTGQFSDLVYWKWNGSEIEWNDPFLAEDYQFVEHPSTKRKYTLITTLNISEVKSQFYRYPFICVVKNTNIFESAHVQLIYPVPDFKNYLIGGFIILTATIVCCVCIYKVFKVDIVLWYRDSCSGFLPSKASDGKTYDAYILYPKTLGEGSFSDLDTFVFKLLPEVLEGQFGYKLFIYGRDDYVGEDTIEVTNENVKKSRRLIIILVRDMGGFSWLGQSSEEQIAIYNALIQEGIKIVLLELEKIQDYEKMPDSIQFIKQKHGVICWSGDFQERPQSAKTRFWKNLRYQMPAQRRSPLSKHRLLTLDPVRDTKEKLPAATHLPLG
# Sequence of panel of 68 receptors (Homo sapiens, UniProt P41595) (P41595 whole entry): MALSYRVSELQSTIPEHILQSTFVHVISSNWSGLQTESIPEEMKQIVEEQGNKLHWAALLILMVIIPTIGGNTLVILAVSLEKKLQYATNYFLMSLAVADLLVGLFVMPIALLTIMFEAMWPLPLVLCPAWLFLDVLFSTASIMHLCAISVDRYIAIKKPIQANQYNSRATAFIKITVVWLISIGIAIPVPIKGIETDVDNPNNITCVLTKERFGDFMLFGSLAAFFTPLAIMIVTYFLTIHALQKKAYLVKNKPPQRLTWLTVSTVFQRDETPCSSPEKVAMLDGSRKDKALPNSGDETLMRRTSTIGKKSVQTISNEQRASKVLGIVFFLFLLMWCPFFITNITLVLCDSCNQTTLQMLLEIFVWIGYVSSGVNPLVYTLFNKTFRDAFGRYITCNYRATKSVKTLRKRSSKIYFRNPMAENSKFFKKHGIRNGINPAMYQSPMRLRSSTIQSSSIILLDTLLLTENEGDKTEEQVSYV
# Sequence of panel of 68 receptors (Homo sapiens, UniProt P25100) (P25100 whole entry): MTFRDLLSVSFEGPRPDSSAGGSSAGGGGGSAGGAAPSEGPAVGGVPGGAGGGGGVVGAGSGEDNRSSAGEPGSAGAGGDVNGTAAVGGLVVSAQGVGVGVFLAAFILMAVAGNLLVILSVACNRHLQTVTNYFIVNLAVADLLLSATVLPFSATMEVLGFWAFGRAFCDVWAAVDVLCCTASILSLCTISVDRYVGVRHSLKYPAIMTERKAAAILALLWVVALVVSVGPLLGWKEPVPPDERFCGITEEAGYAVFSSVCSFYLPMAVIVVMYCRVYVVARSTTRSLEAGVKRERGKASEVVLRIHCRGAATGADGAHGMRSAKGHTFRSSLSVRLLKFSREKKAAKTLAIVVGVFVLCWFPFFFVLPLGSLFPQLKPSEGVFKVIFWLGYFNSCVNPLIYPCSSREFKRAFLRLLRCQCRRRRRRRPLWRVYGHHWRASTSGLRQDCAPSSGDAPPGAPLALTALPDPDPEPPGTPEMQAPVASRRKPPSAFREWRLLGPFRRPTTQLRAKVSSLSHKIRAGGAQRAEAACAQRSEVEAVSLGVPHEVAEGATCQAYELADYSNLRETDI
# Sequence of panel of 68 receptors (Homo sapiens, UniProt P41143) (P41143 whole entry): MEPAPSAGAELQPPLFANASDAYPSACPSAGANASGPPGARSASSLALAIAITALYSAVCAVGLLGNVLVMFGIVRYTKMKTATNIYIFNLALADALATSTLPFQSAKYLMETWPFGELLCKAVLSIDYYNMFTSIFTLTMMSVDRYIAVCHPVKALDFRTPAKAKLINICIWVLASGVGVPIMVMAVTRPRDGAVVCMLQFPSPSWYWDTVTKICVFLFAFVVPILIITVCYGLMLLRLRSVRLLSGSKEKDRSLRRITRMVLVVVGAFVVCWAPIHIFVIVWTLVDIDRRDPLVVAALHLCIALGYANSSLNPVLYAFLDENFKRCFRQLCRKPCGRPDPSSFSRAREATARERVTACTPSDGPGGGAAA
# Sequence of panel of 68 receptors (Homo sapiens, UniProt P03372) (P03372 whole entry): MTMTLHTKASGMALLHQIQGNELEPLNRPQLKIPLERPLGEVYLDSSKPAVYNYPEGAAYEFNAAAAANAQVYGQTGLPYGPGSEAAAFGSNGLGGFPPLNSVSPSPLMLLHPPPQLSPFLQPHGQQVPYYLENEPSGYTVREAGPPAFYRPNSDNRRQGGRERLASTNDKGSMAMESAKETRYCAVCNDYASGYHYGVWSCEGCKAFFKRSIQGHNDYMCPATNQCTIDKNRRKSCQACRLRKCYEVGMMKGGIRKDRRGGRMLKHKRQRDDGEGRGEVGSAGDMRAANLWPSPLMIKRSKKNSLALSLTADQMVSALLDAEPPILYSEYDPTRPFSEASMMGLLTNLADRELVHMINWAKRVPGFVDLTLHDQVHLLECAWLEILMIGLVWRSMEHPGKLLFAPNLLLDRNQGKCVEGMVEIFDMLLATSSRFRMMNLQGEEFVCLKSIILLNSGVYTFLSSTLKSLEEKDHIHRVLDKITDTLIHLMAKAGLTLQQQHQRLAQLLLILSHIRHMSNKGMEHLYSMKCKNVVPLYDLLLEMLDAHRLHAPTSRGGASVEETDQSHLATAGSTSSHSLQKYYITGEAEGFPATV
# Sequence of panel of 68 receptors (Homo sapiens, UniProt P08908) (P08908 whole entry): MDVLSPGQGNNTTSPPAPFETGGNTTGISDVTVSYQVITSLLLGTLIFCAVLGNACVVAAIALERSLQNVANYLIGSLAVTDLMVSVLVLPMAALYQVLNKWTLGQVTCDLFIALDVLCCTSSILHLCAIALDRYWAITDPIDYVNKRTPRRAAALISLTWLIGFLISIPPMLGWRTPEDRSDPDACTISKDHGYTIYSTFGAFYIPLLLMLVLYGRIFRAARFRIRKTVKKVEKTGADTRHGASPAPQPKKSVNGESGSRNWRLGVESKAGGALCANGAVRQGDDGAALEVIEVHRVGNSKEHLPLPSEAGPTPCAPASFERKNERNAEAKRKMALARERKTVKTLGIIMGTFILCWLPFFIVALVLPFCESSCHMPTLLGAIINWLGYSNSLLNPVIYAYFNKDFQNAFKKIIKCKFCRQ
# Sequence of panel of 68 receptors (Homo sapiens, UniProt P31645) (P31645 whole entry): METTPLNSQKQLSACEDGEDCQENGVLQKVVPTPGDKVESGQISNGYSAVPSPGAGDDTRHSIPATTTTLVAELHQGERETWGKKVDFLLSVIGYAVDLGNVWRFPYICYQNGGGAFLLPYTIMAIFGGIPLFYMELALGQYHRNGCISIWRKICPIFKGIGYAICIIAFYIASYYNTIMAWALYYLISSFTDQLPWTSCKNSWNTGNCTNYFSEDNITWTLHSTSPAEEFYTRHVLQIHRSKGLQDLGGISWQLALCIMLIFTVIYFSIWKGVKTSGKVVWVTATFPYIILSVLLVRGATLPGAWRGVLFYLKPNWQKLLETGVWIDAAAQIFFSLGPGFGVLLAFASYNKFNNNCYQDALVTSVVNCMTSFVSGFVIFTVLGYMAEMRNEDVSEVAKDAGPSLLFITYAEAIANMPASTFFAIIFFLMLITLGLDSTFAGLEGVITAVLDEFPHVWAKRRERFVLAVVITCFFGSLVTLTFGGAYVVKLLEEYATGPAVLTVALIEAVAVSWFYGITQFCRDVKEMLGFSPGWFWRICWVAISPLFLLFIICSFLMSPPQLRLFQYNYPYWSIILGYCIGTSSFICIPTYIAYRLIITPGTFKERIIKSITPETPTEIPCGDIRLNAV
# Sequence of panel of 68 receptors (Homo sapiens, UniProt P25929) (P25929 whole entry): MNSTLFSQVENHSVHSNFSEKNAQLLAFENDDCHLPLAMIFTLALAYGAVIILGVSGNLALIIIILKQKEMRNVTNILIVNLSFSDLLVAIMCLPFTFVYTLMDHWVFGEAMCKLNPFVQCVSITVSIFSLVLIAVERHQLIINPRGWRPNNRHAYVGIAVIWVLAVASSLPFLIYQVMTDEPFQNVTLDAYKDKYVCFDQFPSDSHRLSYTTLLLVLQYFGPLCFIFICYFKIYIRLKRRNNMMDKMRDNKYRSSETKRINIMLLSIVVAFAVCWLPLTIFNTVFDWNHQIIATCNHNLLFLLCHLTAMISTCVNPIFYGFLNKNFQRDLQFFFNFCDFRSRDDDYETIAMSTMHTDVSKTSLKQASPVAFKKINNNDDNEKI
structure (smiles),measurement,setting,value
CCOc1ccc(-c2cc(NC(=O)c3c(F)cccc3F)c(C(=O)O)s2)cc1 [KUC107784N-02],% Inh.,panel of 68 receptors [1],3%
same,% Inh.,panel of 68 receptors [2],2%
same,% Inh.,panel of 68 receptors [3],5%
same,% Inh.,panel of 68 receptors [4],−8%
same,% Inh.,panel of 68 receptors [5],0%
same,% Inh.,panel of 68 receptors [6],28%
same,% Inh.,panel of 68 receptors [7],9%
same,% Inh.,panel of 68 receptors [8],4%
same,% Inh.,panel of 68 receptors [9],7%
same,% Inh.,panel of 68 receptors [10],11%
same,% Inh.,panel of 68 receptors [11],5%
same,% Inh.,panel of 68 receptors [12],8%
"CCOc1ccc(-c2cc(NC(=O)c3c(F)cccc3F)c(C(=O)O)s2)cc1 [ML317, 3-(2,6-difluorobenzamido)-5-(4-ethoxyphenyl)thiophene-2-carboxylic acid]",Whole-cell anti-K1 dot blot reactivity,K1 antigen of UTI89,reduces K1 reactive material to levels comparable to those of genetic capsule mutants
same,"Plasma Stability, % remaining at 3 hr","Plasma stability, human",95.3 % remaining
same,inhibition at 100 µM,"E. coli K1 strain UTI89; Escherichia coli, read-out: % Inhibition at 100 μM",9.12%
same,IC50,"E. coli K1 strain UTI89; Escherichia coli, read-out: K1 Capsule IC50, commercial sample, SID 103147605",4.5 ± 2.4 µM
same,IC50,"E. coli K1 strain UTI89; Escherichia coli, read-out: K1 Capsule IC50, synthesized sample, SID 126497311",1.89 ± 1.56 µM
same,IC50,"E. coli K1 strain UTI89; Escherichia coli, read-out: K1 phage IC50, first round of synthetic analogues, n = 3",1.89 µM
same,IC50,"E. coli K1 strain UTI89; Escherichia coli, read-out: K1 phage IC50, purchased analogue series, n = 3",4.5 µM
same,Selectivity (Cyt./K1),E. coli K1 strain UTI89; first round of synthetic analogues,27.3
same,Selectivity (Cyt./K1),E. coli K1 strain UTI89; purchased analogue series,10.49
same,Selectivity index (CC50/IC50),E. coli K1 strain UTI89,> 10
same,Selectivity index (CC50/IC50),E. coli K1 strain UTI89; listed as CID 23602075,10.49
same,selectivity ratio,"in vitro; commercial sample, SID 103147605",10.5
same,selectivity ratio,"in vitro; synthesized sample, SID 126497311",27.3
same,Transcript for the capsule genes from each of the two major promoters,capsule genes of UPEC,significantly reduced transcript
